We go through one compound from patent US11952328B2, “Selective ship inhibitors for treating disease” (THE RESEARCH FOUNDATION FOR THE STATE UNIVERSITY OF NEW YORK, priority 2018, dated 2024).

The subject of test [1] is RMA cells. Description: Apoptosis (AnnexinV), Caspase 8 and CD95/Fas in RMA cells in culture. It counts as cell-based, mice. The source says: FIGS. 5A-5I show the effects of SHIP1 inhibitor as a chemotherapeutic. […] FIG. 5D and FIG. 5E show the representative histograms and box-and-whisker plots of FasL expression by NK cells from C56BL/6 (p=0.0002; Unpaired t test with Welch's correction) or RAG1−/− (p<0.0001; Mann-Whitney U test) tumor challenged, SHIP inhibitor or vehicle treated hosts. […] (NK cells p=0.0192; Unpaired t test with Welch's correction. T cells p=0.0659; Mann-Whitney U test). Additionally, FIGS. 5A-5G show the analysis by flow cytometry on day 3 after hosts receive SHIP inhibitor or vehicle for two consecutive days. NK cells are defined as NK1.1+CD3ε−. The graphs are representative of at least two independent experiments with at least four SHIP inhibitor and vehicle treated mice. […] Viability is expressed as frequency at a given concentration expressed as a percentage of solvent only treated cells. The kill curve summarizes pooled data from three independent experiments using six replicate wells/concentration with mean ±SEM indicated (n=18 per group. One-way ANOVA with Dunnett's multiple comparisons. 0 pM vs. 20 pM Adjusted p value =0.0001. 0 pM vs. 15 pM Adjusted p value =0.0001. 0 pM vs. 10 pM Adjusted p value =0.0001. 0 pM vs. 7.5 pM Adjusted p value =0.0001. 0 pM vs. 5 pM Adjusted p value =0.0001).
NK cells are able to directly kill target cells through several different mechanisms including both production of perforin and granzymes and induction of apoptosis via Fas-FasL signaling (Arase, H. et al., Fas-mediated cytotoxicity by freshly isolated natural killer cells. J Exp Med. (1995); 181: 1235-1238; Zamai, L. et al., Natural killer (NK) cell-mediated cytotoxicity: differential use of TRAIL and Fas ligand by immature and mature primary human NK cells. J Exp Med. (1998); 188: 2375-2380). […] SHIP1 was recently shown to be recruited to CD95/Fas to set a threshold for induction of Caspase 8, and thereby, a threshold for induction of apoptosis (Park, M. Y. et al., Impaired T-cell survival promotes mucosal inflammatory disease in SHIP1-deficient mice. Mucosal Immunol. (2014); 7: 1429-1439). […]

Test [2] deals with CT26. Description: CT26 viability following in vitro treatment. It counts as cell-based, mice. As to conditions: in vitro 24 h; only 20 μM vs 0 μM adjusted p=0.0463, other concentrations N.S. The protocol: FIG. 7A and FIG. 7B show CT26 (FIG. 7A) and MC-38 (FIG. 7B) viability following in vitro treatment with 3AC for 24 h at indicated doses. Relative viability is expressed as frequency compared to solvent only treated cells. Kill curve summarizes pooled data from three independent experiments using six replicate wells/concentration with mean±SEM indicated. BALB/C mice were challenged with subcutaneous injection of CT26 colon carcinoma cells in the right flank. Mice were treated with either 2 consecutive days of 3AC or vehicle control each week as in FIG. 4A. Tumor size at […] 28 days (FIG. 7C), and tumor weight on day 28 determined after dissection of tumor (FIG. 7E). […] C57BL/6 mice were challenged with subcutaneous injection of MC-38 colon carcinoma cells in the right flank. Mice were treated with either 2 consecutive days of SHIP inhibitor or vehicle control each week as in FIG. 4A. Tumor size at 14, 21 and 25 days (FIG. 7D), and tumor weight (FIG. 7F) on day 25 were determined after dissection of tumor. […] FIG. 7A (n=18 per group. One-way ANOVA with Dunnett's multiple comparisons. 0 μM vs. 20 μM Adjusted p value=0.0463. All other concentrations of SHIP inhibitor compared with solvent only N.S.). FIG. 7B (n=18 per group. One-way ANOVA with Dunnett's multiple comparisons. All concentrations of SHIP inhibitor compared with solvent only N.S.). […]

Setting [3] is: RMA cells, culture for 12 hours.

As for `CC(C)CCC[C@@H](C)[C@H]1CC[C@H]2[C@@H]3CCC4C[C@H](N)CC[C@]4(C)[C@H]3CC[C@]12C` (stereo partly drawn) [Compound 3AC, 3-α-aminocholestane], the “frequency of death receptor CD95/Fas” value in test [1] (3AC-treated RMA cells) is listed as “increased frequency”. In addition, in test [1] (setting [3]), the “activation of Caspase 8” value was “increased activation of Caspase 8” and the “induction of apoptosis (AnnexinV)” value is given as “significant induction of apoptosis”. The “CT26 viability (direct killing)” value in test [2] is “resistant to direct killing”.
